{"source": "patent US20180148480A1", "about": "“[…] ENHANCEMENT OF THE T-CELL ARM[…] AN ANTI-CANCER THERAPY” (THE JOHNS HOPKINS UNIVERSITY, priority 2015, published 2018)", "origin": "cited, not measured here", "key": {"animals": {"tested_on": "animals", "details": "single intravenous dose; kills 100% of animals within 24 hrs"}}, "data": [{"substance": "wild-type PA", "values": [{"measurement": "LD100", "setting": "animals", "result": 0.1, "unit": "µg"}, {"measurement": "LD50 concentration", "setting": "CWR22Rv1", "result": "≤ 50", "unit": "pM"}, {"measurement": "LD50 concentration", "setting": "LNCaP", "result": "≤ 50", "unit": "pM"}, {"measurement": "LD50 concentration", "setting": "TT (thyroid)", "result": "≤ 50", "unit": "pM"}, {"measurement": "LD50 concentration", "setting": "PC3", "result": "≤ 50", "unit": "pM"}, {"measurement": "LD50 concentration", "setting": "DU145", "result": "≤ 50", "unit": "pM"}, {"measurement": "LD50 concentration", "setting": "TSU (bladder)", "result": "≤ 50", "unit": "pM"}, {"measurement": "LD50 concentration", "setting": "LAPC-4", "result": "≤ 50", "unit": "pM"}, {"measurement": "LD50 concentration", "setting": "SN12C (renal)", "result": "≤ 50", "unit": "pM"}]}]}
